Where two headings read alike, the source gives them in different places. Blank lines part the entries; values can stand above or below the compound they belong to.
Tests used:
[1] = Human liver microsomal stability; type: in vitro ADME; conditions: incubation with microsomes for 15 min at 5 μM
[2] = Rat liver microsomal stability; type: in vitro ADME; conditions: incubation with microsomes for 15 min at 5 μM
mGlu2 receptor [3] = target: T1, mGlu2 receptor (Homo sapiens, UniProt Q14416); test: [35S]GTPγS binding assay, agonist mode; type: biochemical; conditions: for Emax: read-out: mGlu2 Ago EMAX ±SD
T1 sequence (Q14416 19-872): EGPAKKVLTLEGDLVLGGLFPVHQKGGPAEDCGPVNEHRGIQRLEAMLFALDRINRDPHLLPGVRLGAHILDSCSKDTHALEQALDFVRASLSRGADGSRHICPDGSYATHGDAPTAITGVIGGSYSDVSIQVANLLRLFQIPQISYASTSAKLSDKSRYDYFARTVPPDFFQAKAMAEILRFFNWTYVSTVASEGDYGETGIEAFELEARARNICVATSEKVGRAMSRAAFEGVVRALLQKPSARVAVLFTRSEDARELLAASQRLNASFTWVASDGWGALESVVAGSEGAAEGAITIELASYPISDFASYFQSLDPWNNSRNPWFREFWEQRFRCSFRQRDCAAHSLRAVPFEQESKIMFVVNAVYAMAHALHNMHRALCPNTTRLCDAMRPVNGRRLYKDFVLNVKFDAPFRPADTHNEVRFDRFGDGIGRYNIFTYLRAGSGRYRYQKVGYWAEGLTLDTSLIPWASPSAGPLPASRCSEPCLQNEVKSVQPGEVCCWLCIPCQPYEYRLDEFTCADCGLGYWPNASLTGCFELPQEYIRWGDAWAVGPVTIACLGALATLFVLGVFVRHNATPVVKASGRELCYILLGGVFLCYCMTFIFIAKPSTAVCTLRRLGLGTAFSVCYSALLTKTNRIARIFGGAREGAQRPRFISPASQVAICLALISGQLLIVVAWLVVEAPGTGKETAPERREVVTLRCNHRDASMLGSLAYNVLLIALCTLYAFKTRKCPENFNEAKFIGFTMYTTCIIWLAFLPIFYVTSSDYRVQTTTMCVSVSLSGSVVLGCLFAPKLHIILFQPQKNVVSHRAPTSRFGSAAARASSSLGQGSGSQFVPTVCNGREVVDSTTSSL

[4] = Brain and plasma kinetics in rat after a single dose; type: in vivo, male Sprague Dawley rat
mGlu1 = mGlu1 (Homo sapiens, UniProt Q13255); test: Selectivity panel, mGlu1 Ca2+ assay; type: cell-based
mGlu3 = mGlu3 (Homo sapiens, UniProt Q14832); test: Selectivity panel, mGlu3 Ca2+ assay; type: cell-based
Chain of mGlu3 (Q14832 23-879): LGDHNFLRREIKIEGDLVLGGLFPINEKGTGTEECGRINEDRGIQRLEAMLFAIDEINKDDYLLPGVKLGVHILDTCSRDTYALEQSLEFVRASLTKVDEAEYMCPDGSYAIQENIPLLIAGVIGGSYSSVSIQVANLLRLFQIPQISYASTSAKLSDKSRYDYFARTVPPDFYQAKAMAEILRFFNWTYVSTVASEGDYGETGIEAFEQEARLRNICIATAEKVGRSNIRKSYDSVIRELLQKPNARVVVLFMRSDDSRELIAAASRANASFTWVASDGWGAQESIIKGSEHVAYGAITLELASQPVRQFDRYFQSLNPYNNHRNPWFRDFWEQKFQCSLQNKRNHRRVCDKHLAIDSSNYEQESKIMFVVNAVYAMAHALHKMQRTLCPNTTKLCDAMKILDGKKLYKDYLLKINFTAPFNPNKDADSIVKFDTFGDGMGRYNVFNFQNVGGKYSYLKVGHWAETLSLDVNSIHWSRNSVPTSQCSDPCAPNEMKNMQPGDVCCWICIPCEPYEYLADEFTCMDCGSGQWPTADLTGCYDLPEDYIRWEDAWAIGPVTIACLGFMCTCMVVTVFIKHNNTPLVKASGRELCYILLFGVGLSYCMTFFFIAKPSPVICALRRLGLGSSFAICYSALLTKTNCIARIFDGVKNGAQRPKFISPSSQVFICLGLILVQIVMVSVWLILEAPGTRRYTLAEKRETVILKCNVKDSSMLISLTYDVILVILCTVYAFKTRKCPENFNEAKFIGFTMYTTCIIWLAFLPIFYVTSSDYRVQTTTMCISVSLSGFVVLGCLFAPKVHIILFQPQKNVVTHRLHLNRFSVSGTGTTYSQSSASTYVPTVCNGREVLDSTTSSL

mGlu4 = mGlu4 (Homo sapiens, UniProt Q14833); test: Selectivity panel, mGlu4 assay; type: cell-based
Chain of mGlu4 (Q14833 33-912): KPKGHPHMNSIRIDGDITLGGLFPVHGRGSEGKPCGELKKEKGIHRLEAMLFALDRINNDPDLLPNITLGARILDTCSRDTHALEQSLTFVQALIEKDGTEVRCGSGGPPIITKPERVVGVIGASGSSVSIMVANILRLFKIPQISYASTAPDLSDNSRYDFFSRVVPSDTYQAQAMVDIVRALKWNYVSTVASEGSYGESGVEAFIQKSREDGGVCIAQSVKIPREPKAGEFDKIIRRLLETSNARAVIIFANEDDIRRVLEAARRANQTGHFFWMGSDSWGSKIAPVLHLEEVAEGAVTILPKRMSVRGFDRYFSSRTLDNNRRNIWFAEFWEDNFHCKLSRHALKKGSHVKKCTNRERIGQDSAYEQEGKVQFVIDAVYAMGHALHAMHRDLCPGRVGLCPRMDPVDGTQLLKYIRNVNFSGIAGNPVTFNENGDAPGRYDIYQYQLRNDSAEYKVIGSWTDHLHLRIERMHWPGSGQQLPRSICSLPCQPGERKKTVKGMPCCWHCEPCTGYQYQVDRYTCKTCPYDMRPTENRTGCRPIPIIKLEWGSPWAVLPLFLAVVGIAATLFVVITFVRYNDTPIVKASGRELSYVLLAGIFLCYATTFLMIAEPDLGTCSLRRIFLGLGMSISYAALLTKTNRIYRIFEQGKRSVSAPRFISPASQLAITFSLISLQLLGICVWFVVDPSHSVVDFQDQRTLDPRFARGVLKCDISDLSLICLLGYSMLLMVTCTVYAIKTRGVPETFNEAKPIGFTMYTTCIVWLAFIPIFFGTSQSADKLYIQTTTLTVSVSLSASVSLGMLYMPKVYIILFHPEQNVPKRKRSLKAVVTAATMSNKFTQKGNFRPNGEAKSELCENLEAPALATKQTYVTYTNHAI

mGlu5 = mGlu5 (Homo sapiens, UniProt P41594); test: Selectivity panel, mGlu5 Ca2+ assay; type: cell-based
mGlu6 = mGlu6 (Rattus norvegicus, UniProt P35349); test: Selectivity panel, mGlu6 [35S]GTPγS binding; type: biochemical
mGlu7 = mGlu7 (Homo sapiens, UniProt Q14831); test: Selectivity panel, mGlu7 Ca2+ assay; type: cell-based
Chain of mGlu7 (Q14831 35-915): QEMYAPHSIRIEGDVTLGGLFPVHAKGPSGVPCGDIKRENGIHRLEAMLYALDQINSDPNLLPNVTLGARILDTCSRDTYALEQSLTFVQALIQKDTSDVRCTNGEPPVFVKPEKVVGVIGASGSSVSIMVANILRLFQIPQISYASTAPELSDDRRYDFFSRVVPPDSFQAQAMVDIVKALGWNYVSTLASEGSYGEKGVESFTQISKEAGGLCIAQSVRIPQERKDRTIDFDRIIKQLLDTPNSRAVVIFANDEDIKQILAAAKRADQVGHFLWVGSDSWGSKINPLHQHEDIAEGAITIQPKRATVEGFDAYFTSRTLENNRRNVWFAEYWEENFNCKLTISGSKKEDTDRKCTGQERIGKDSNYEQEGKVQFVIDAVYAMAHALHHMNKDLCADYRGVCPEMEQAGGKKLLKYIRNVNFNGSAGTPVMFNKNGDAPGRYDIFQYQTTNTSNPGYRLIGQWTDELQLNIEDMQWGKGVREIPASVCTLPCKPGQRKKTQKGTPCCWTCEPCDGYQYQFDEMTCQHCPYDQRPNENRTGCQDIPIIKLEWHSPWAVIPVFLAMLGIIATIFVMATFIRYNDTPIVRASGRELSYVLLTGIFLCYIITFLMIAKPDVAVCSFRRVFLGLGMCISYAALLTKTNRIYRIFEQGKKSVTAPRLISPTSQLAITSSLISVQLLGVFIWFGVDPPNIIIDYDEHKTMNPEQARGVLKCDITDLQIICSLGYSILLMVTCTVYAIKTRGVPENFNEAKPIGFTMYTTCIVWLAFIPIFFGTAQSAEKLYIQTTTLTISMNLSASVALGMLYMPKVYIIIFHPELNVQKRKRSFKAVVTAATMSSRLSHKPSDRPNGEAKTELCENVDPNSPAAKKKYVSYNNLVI

mGlu8 = mGlu8 (Homo sapiens, UniProt O00222); test: Selectivity panel, mGlu8 Ca2+ assay; type: cell-based
Chain of mGlu8 (O00222 34-908): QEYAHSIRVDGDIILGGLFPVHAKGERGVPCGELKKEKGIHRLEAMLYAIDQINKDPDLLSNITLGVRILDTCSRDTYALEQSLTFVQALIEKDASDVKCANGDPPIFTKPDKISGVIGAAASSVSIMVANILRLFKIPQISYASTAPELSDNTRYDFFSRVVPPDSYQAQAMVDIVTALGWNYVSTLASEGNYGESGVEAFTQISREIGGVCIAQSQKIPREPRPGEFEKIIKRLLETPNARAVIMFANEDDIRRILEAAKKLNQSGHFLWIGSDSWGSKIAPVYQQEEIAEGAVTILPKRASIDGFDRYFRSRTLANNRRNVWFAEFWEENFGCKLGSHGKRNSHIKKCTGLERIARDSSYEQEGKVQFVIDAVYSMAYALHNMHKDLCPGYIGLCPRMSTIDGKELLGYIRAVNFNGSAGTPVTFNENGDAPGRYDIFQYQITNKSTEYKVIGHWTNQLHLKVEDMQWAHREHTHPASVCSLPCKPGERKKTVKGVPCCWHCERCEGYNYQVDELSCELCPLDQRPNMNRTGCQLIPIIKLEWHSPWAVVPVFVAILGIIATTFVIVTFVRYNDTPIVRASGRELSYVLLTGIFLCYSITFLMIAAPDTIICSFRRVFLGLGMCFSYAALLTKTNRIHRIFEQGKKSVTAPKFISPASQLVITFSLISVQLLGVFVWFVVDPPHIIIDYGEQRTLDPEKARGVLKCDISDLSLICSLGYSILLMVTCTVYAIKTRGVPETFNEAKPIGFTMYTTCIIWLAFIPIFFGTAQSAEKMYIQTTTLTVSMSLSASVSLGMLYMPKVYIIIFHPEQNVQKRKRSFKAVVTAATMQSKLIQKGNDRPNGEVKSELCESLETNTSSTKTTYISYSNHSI

mGlu2 receptor [5] = target: T1, mGlu2 receptor; test: [35S]GTPγS binding assay, PAM mode; type: biochemical
[6] = male, Sprague Dawley, brain, sc, 10 mg/kg
[7] = male, Sprague Dawley, brain/plasma, sc, 10 mg/kg
[8] = male, Sprague Dawley, plasma, sc, 10 mg/kg, pH 3
[9] = male, Sprague Dawley, plasma, sc, 10 mg/kg
[10] = male, Sprague Dawley, brain, po, 10 mg/kg
[11] = male, Sprague Dawley, plasma, po, 10 mg/kg

Structure (SMILES): CCCCn1ccn2c(CN3CCC(c4ccccc4)CC3)c(C)nc2c1=O [Compound 3a]
HLM (%), percentage of compound metabolized [1]: 20% | RLM (%), percentage of compound metabolized [2]: 58%

Structure (SMILES): CCCCn1ccn2c(-c3ccc(Oc4ccc(C)nc4C)c(F)c3)c(C)nc2c1=O [Compound 3c]
EC50 (mGlu2 receptor [3]): 1.82 µM | Emax (mGlu2 receptor [3]): 54% | HLM (%), percentage of compound metabolized [1]: 24% | RLM (%), percentage of compound metabolized [2]: 56% | concentration at 1 h [4, 6]: 446 ng/g | Kp at 1 h [4, 7]: 0.2 | concentration at 1 h [4, 8]: 1820 ng/mL

Structure (SMILES): CCCCn1ccn2c(-c3ccc(NCc4ccc(OC)nc4)cc3)c(C)nc2c1=O [Compound 3d]
EC50 (mGlu2 receptor [3]): 0.571 µM | Emax (mGlu2 receptor [3]): 47 ± 1% | HLM (%), percentage of compound metabolized [1]: 59% | RLM (%), percentage of compound metabolized [2]: 36% | Kp at […] [4, 7]: 0.3

Structure (SMILES): CCCCn1ccn2c(-c3ccc(OCC4CC4)c(Cl)c3)c(C)nc2c1=O [Compound 3e]
HLM (%), percentage of compound metabolized [1]: 20% | RLM (%), percentage of compound metabolized [2]: 49% | EC50 (mGlu1): > 30 µM | IC50 (mGlu1): > 30 µM | Emax (mGlu1; read-out: mGlu1 agonism Emax): 4% | Emax (mGlu1; read-out: mGlu1 antagonism Emax): 18% | IC50 (mGlu3): > 30 µM | EC50 (mGlu3; mGlu3 PAM EC50, Ca2+ read-out): 14.3 µM | EC50 (mGlu3; mGlu3 agonism EC50, Ca2+ read-out): > 30 µM | Emax (mGlu3; read-out: mGlu3 PAM Emax): 63% | Emax (mGlu3; read-out: mGlu3 agonism Emax): 2% | Emax (mGlu3; read-out: mGlu3 antagonism Emax): 15% | EC50 (mGlu4): > 25 µM | IC50 (mGlu4): 17 µM | Emax (mGlu4; read-out: mGlu4 agonism Emax): 5% | Emax (mGlu4; read-out: mGlu4 antagonism Emax): 100% | EC50 (mGlu5): > 30 µM | IC50 (mGlu5): > 30 µM | Emax (mGlu5; read-out: mGlu5 PAM Emax): 0% | EC50 (mGlu5; read-out: mGlu5 agonism EC50, Ca2+ read-out): > 30 µM | Emax (mGlu5; read-out: mGlu5 agonism Emax): 0% | Emax (mGlu5; read-out: mGlu5 antagonism Emax): 7% | EC50 (mGlu6): > 30 µM | IC50 (mGlu6): 26.5 µM | Emax (mGlu6; read-out: mGlu6 agonism Emax): 1% | Emax (mGlu6; read-out: mGlu6 antagonism Emax): 53% | EC50 (mGlu7): > 25 µM | IC50 (mGlu7): 8.32 µM | Emax (mGlu7; read-out: mGlu7 PAM Emax): 5% | EC50 (mGlu7; read-out: mGlu7 agonism EC50, Ca2+ read-out): > 25 µM | Emax (mGlu7; read-out: mGlu7 agonism Emax): 1% | Emax (mGlu7; read-out: mGlu7 antagonism Emax): 27% | EC50 (mGlu8): > 25 µM | IC50 (mGlu8): > 25 µM | EC50 (mGlu8; read-out: mGlu8 agonism EC50, Ca2+ read-out): > 25 µM | Emax (mGlu8; read-out: mGlu8 agonism Emax): -4% | Emax (mGlu8; read-out: mGlu8 antagonism Emax): 16% | concentration at 1 h [4, 6]: 2540 ng/g | concentration at 2 h [4, 6]: 2860 ng/g | concentration at 4 h [4, 6]: 835 ng/g | concentration at 2 h [4, 9]: 1390 ng/mL | concentration at 4 h [4, 9]: 526 ng/mL | concentration at 1 h [4, 8]: 1420 ng/mL

Structure (SMILES): CCCCn1ccn2c(-c3ccc(N4CCNCC4)c(Cl)c3)c(C)nc2c1=O [Compound 3g]
EC50 (mGlu2 receptor [3]): 0.989 µM | Emax (mGlu2 receptor [3]): 36 ± 4% | HLM (%), percentage of compound metabolized [1]: 0% | RLM (%), percentage of compound metabolized [2]: 17%

Structure (SMILES): CCCCn1ccn2c(-c3ccc4c(ccn4-c4cccnc4)c3)c(C)nc2c1=O [Compound 3i]
EC50 (mGlu2 receptor [3]): 0.229 µM | Emax (mGlu2 receptor [3]): 44% | HLM (%), percentage of compound metabolized [1]: 35% | RLM (%), percentage of compound metabolized [2]: 47%

Structure (SMILES): CCCCn1ccn2c(-c3ccc(Oc4ccccc4)cc3)c(C)nc2c1=O [Compound 3j]
EC50 (mGlu2 receptor [3]): 0.151 µM | Emax (mGlu2 receptor [3]): 48 ± 2% | HLM (%), percentage of compound metabolized [1]: 2% | RLM (%), percentage of compound metabolized [2]: 86% | brain level 4 h ([4]; 10 mg/kg p.o., 4 h): BQL ^d | concentration at 1 h [4, 10]: 104 ng/g | concentration at 2 h [4, 10]: 92 ng/g | Kp at 2 h ([4]; male, Sprague Dawley, brain/plasma, po, 10 mg/kg): 0.5 | concentration at 1 h [4, 11]: 263 ng/mL | concentration at 2 h [4, 11]: 192 ng/mL | concentration at 4 h [4, 11]: 14 ng/mL

The next lines start with the values.

HLM (%), percentage of compound metabolized [1]: 2% | RLM (%), percentage of compound metabolized [2]: 45%
Structure (SMILES): CCCCn1ccn2c(-c3ccc(OCC4CC4)c(Cl)c3)nnc2c1=O [Compound 4a, 7-Butyl-3-[3-chloro-4-(cyclopropylmethoxy)phenyl]-[1,2,4]triazolo[4,3-a]pyrazin-8-one]

HLM (%), percentage of compound metabolized [1]: 1% | RLM (%), percentage of compound metabolized [2]: 25%
Structure (SMILES): CCCCn1cnn2c(-c3ccc(OCC4CC4)c(Cl)c3)cnc2c1=O [Compound 4b, 3-Butyl-7-[3-chloro-4-(cyclopropylmethoxy)phenyl]imidazo[2,1-f][1,2,4]triazin-4-one]

HLM (%), percentage of compound metabolized [1]: 4% | RLM (%), percentage of compound metabolized [2]: 21%
Structure (SMILES): CCCCn1ncn2c(-c3ccc(OCC4CC4)c(Cl)c3)cnc2c1=O [Compound 4c, 7-Butyl-3-[3-chloro-4-(cyclopropylmethoxy)phenyl]imidazo[1,2-d][1,2,4]triazin-8-one]

HLM (%), percentage of compound metabolized [1]: 0% | RLM (%), percentage of compound metabolized [2]: 60%
Structure (SMILES): CCCCn1cnc2c(-c3ccc(OCC4CC4)c(Cl)c3)c(C)nn2c1=O [Compound 4d, 3-Butyl-8-[3-chloro-4-(cyclopropylmethoxy)phenyl]-7-methyl-pyrazolo[1,5-a][1,3,5]triazin-4-one]

fold decrease in mGlu2 PAM potency vs 3e (mGlu2 receptor [5]): ~10 fold | EC50 (mGlu2 receptor [3]): > 50.1 µM | Emax (mGlu2 receptor [3]): 12% | HLM (%), percentage of compound metabolized [1]: 31% | RLM (%), percentage of compound metabolized [2]: 74%
Structure (SMILES): CCCCn1ccn2c(-c3ccc(OCC4CC4)c(Cl)c3)nc(C)c2c1=O [Compound 4e, 7-Butyl-3-[3-chloro-4-(cyclopropylmethoxy)phenyl]-1-methyl-imidazo[1,5-a]pyrazin-8-one]

Source: paper PMC8427794 (ACS Omega, 2021)
